Assay results published in patent US5688773A, “Method of selectively destroying neoplastic cells” (priority 1994, dated 1997).

How the values were obtained:
[1] = system: C6 cells exposed to CM from C6-P450; assay: C6 colony formation after conditioned medium from drug-exposed cells; conditions: for Colony numbers: colonies six days later
MCF-7-Z3 cells = assay: Cyclophosphamide sensitivity of MCF-7 cell lines in culture; type: cell-based, human
Protocol: (§1) To test for drug sensitivity, 1×10^5 cells were plated in 30-mm tissue culture plates (Falcon 3046) in duplicate. Drugs were added 18-24 hours after seeding. Cells were allowed to grow for times ranging up to 5 days after drug treatment, and the final cell number was then determined. Cells were rinsed with phosphate buffered saline or Hank's buffered saline, dispersed using trypsin-EDTA (GIBCO/BRL, Inc.), and then counted with a hemocytometer. Results are expressed as a growth ratio, i.e., the number of cells in plates containing drug as a percentage of the corresponding drug-free controls (mean±range of duplicate determinations).
(§2) Transfection of MCF-7 cells with the cytochrome P450 2B1 expression plasmid, selection of neomycin-resistant clones, characterization of the expressed cytochrome P450 2B1 protein, and sensitivity of cell lines to drugs were carried out as described in Example 7 for the 9L cytochrome P450 2B1-expressing cell lines.

[2] = system: cytochrome P450 2B1-expressing MCF-7 cell lines P2, P3, P5, P8, P9 and P26; assay: as above; type: cell-based, human
Protocol: as §1, §2

parental MCF-7 cells = assay: as above; type: cell-based, human
Protocol: as §1, §2

9L-ZP cells = assay: Drug sensitivity of cultured 9L cells with or without metyrapone; conditions: Rattus norvegicus, 120 h
control tumor MCF-7 Z3 = assay: MCF-7 tumors in nude mouse model; type: in vivo, nude mice; conditions: 100 mg/kg ×2 intraperitoneal, day 0 and day 2
Protocol: (§3) MCF-7 cells or stable MCF-7 cell transfectants expressing cytochrome P450 2B1 or E. coli β-galactosidase (lacZ) were grown in cell culture. Cells in the exponential growth phase were harvested and then injected subcutaneously (1×10^7 cells in 0.2 mL) in the flanks of nude mice. A single 17β-estradiol pellet (1.7 mg hormone/60-day release pellet, Innovative Research, Toledo, Ohio) was implanted one day before tumor inoculation. At one month after tumor inoculation, the size of each tumor was measured using a vernier caliper.
(§4) Nude mice were then treated with cyclophosphamide given at 100 mg/kg body weight×2, by intraperitoneal injection given on day 0 and again on day 2. Tumor size measurements were then again determined using a vernier caliper, and data are expressed relative to tumor sizes as of day 0, the day of initial cyclophosphamide (CPA) injection.

[3] = system: cytochrome P450 2B1-expressing MCF-7 cells; assay: MCF-7 tumors in nude mouse model; type: in vivo, nude mice; conditions: 100 mg/kg ×2 intraperitoneal, day 0 and day 2
Protocol: as §3, §4

C6 cells = assay: Cell proliferation assay; type: cell-based, rat; conditions: 0.5 mM, four days
Protocol: Cell proliferation assays: For cell proliferation assays, cells (2×10^5 per dish, unless otherwise noted) were plated onto 10 cm dishes. […] Incubations were continued for four days and cell numbers were assayed using a Coulter counter (Coulter Electronics Inc.), after harvesting in trypsinEDTA.

[4] = system: C6 cells co-cultured with irradiated C6-P450 cells; assay: Co-culture assay with irradiated cells; type: cell-based; conditions: Rattus norvegicus, light or radiation study, 96 h; 10% irradiated C6-P450 cells; 0.5 mM CPA, four days; read-out: decrease in the proliferation of C6 cells
Protocol: Co-culture assay: Co-cultures of C6-P450 and C6 cells were incubated in triplicate at different ratios (where 0, 10, 50, 90, and 100% of the cells were C6-P450 cells) to achieve a total number of 2×10^6 cells/10 cm dish. After 24 hours, 0.5 mM CPA was added and four days later, cells were counted as previously described. To compare the killing achieved by cell contact with that obtained by exposure to conditioned medium, the supernatant from each co-culture was harvested, filtered through 0.45 μm membrane filters, mixed in a 1:1 ratio with 5 mL of fresh medium and added to overnight cultures of C6 cells (2×10^6 cells/10 cm dish in triplicate). Four days later, C6 cells were washed, harvested and counted. To determine the specificity of the cell-mediated killing effect from the co-culture assays, C6 cells were incubated overnight with C6 cells that expressed the neomycin phosphotransferase gene (C6-Neo), with irradiated C6 cells, with irradiated C6-Neo, and with irradiated C6-P450 cells. γ-irradiation was performed by exposing cells to a total of 6000 rads emitted by a ^51 chromium source.

C6VIK cells = assay: Ganciclovir sensitivity in vivo, subrenal capsule tumors; parameters: species or system rat; conditions: 20 mg/kg intraperitoneally daily; reassessed over a 16-day period; two animals
Source text: In this study, rat C6 glioma cells were used as a model primary brain tumor type. C6 cells rapidly form a non-encapsulated, non-metastatic tumor after injection into the adult rat CNS. Further, derivative cell lines are available, which lack endogenous TK activity (C6-BUI) or bear the lacZ gene (C6-BAG), which are useful experimentally. A retroviral vector was generated in which the HSV-1-TK gene is regulated by the strong, constitutive retrovirus LTR promoter. C6-BUI cells were infected with this vector and selected for TK activity by growth in HAT medium. Parental and infected cells were tested for their dose-dependent sensitivity to ganciclovir in culture and in vivo following inoculation into the rat subrenal capsule.
Ganciclovir Sensitivity in vivo: Nine rats were implanted in the subrenal capsule with C6VIK cells. Four survived the procedure for further study. Tumors were measured 5 days after implantation. Two animals were treated with ganciclovir (20 mg/kg intraperitoneally daily) and two with saline daily. Tumor size was reassessed over a 16-day period. The two control tumors grew four- to twelve-fold.
This model overcomes the problem of not being able to directly observe the size of an intracerebral tumor implant and the concerns about delivery of ganciclovir through an intact blood-brain barrier.

O=P1(N(CCCl)CCCl)NCCCO1 (centres unmarked) [cyclophosphamide]
Colony numbers ([1]; CM after 0.5 h of 0.5 mM CPA): 263 ± 6 | Colony numbers ([1]; CM after 1.5 h of 0.5 mM CPA): 267 ± 9 | Colony numbers ([1]; CM after 3 h of 0.5 mM CPA): 144 ± 19 | Colony numbers ([1]; CM after 6 h of 0.5 mM CPA): 94 ± 8 | Colony numbers ([1]; CM after 10 h of 0.5 mM CPA): 12 ± 0.3 | Colony numbers ([1]; CM after 24 h of 0.5 mM CPA): 0 | Colony numbers ([1]; CM after 32 h of 0.5 mM CPA): 0 | Colony numbers ([1]; CM after 48 h of 0.5 mM CPA): 0 | Colony numbers ([1]; CM after 72 h of 0.5 mM CPA): 0 | Colony numbers ([1]; CM after 96 h of 0.5 mM CPA): 0 | Inhibition of C6 cell colony formation ([1]; CM after exposure to CPA for 24 hours): Complete inhibition | Toxicity of conditioned medium to C6 cell growth / colony formation ([1]; CM from treated C6-P450 cells, nine days): highly toxic | Secretion effect, C6 colony number ([1]; Table V panel C, CM from treated C6-P450 cultures): 0 | Sensitivity to cyclophosphamide (MCF-7-Z3 cells): insensitive to high concentrations | Sensitivity to cyclophosphamide cytotoxicity [2]: highly sensitive | Sensitivity to cyclophosphamide (parental MCF-7 cells): insensitive to high concentrations | cytotoxicity at 1000 µM (9L-ZP cells): > 90% | Tumor cyclophosphamide sensitivity in vivo (control tumor MCF-7 Z3): only a moderate cyclophosphamide sensitivity | Tumor cell kill in vivo [3]: preferentially killed | Effect on cell proliferation (C6 cells): had no effect | Cell proliferation assay, number of cells (C6 cells; Table V panel A): 21.10±1.37 ×10^6 | inhibition at 500 µM [4]: 30%

Nc1nc(O)c2ncn(COC(CO)CO)c2n1 [ganciclovir]
Tumor size after treatment (C6VIK cells): smaller after the treatment than before
